These results are taken from patent US10076116B2, “N-cycloalkyl-N-(biheterocyclymethylene)-(thio)carboxamide derivatives” (BAYER CROPSCIENCE AKTIENGESELLSCHAFT, priority 2013, dated 2018).

SMILES strings stand for the structures.

System in the first data set: not listed separately
Nature of the data set: log P by HPLC on reversed-phase column (C 18), EEC Directive 79/831 Annex V.A8. The format is physicochemical. The conditions noted are these: HPLC C 18, 40° C., 0.1% aqueous formic acid and acetonitrile, gradient 10% to 90% acetonitrile. The procedure: In table 1, the log P values were determined in accordance with EEC Directive 79/831 Annex V.A8 by HPLC (High Performance Liquid Chromatography) on a reversed-phase column (C 18), using the method described below: Temperature: 40° C.; Mobile phases: 0.1% aqueous formic acid and acetonitrile; linear gradient from 10% acetonitrile to 90% acetonitrile. Calibration was carried out using unbranched alkan-2-ones (comprising 3 to 16 carbon atoms) with known log P values (determination of the log P values by the retention times using linear interpolation between two successive alkanones). lambda-max-values were determined using UV-spectra from 200 nm to 400 nm and the peak values of the chromatographic signals.
In the case of `Cc1noc(C)c1-c1c(CN(C(=O)c2c(C(F)F)nn(C)c2F)C2CC2)sc2ccccc12` [Example I.55], the logP stood at 3.51. Turning to `Cn1cc(C(=O)N(Cc2cc(Br)cnc2Oc2cnc3ccccc3c2)C2CC2)c(C(F)F)n1` [Example I.56], the logP was 3.09. For `Cn1cc(C(=O)N(Cc2cc(Br)cnc2Sc2cnc3ccccc3c2)C2CC2)c(C(F)F)n1` [Example I.57], the logP is on record as 3.27. The same measure, in the same setting: for `Cn1cc(C(=O)N(Cc2cc(Br)cnc2Sc2nccs2)C2CC2)c(C(F)F)n1` [Example I.58] the value was 3.09; for `Cn1nc(C(F)F)c(C(=O)N(Cc2nn(-c3ccccc3)cc2C2=CCOCC2)C2CC2)c1F` [I.02], 3.26. For `Cn1nc(C(F)F)c(C(=O)N(Cc2nn(-c3ccccc3)cc2C2CCOCC2)C2CC2)c1F` [I.04], the logP is 3.15.

As for `Cn1nc(C(F)F)c(C(=S)N(Cc2nn(-c3ccccc3)cc2-c2ccc3c(ccn3C)c2)C2CC2)c1F` [I.05], the logP was 4.64. As for `Cc1ccc(-c2ccsc2CN(C(=O)c2sc(C)nc2C(F)F)C2CC2)s1` [I.06], the logP was 4.08. Take `Cc1ccc(-c2ccsc2CN(C(=O)c2nn(C)nc2C(F)F)C2CC2)s1` [I.07]: the logP was 4.11. Regarding `Cc1ccc(-c2ccsc2CN(C(=O)c2ccsc2Br)C2CC2)s1` [I.08], the logP was 4.69. `Cc1ccc(-c2ccsc2CN(C(=O)c2cn(C)cc2C(F)(F)F)C2CC2)s1` [I.09] had a logP of 4.18. Turning to `Cc1cc(C(=O)N(Cc2sccc2-c2ccc(C)s2)C2CC2)c(C)o1` [I.10], the logP was found to be 4.54. Turning to `Cn1nc(C(F)F)c(C(=O)N(Cc2ncc(C(F)(F)F)cc2-c2ccc(Cl)s2)C2CC2)c1F` [I.18], the logP was determined as 4.54.

Regarding `Cn1nc(C(F)F)c(C(=O)N(Cc2ncc(C(F)(F)F)cc2-c2csc3ccccc23)C2CC2)c1F` [I.20], the logP is 4.46. Same read-out and setting: for `Cc1cscc1-c1cc(C(F)(F)F)cnc1CN(C(=O)c1c(C(F)F)nn(C)c1F)C1CC1` [I.22] the value was 4.12; for `CC(=O)c1ccc(-c2cc(C(F)(F)F)cnc2CN(C(=O)c2c(C(F)F)nn(C)c2F)C2CC2)s1` [I.24], 3.48. The compound `Cn1nc(C(F)F)c(C(=O)N(Cc2ncc(C(F)(F)F)cc2-c2cc3ccccc3s2)C2CC2)c1F` [I.25] showed a logP of 4.73. Same read-out and setting: the value for `Cn1nc(C(F)F)c(C(=O)N(Cc2ncc(C(F)(F)F)cc2-c2ccoc2)C2CC2)c1F` [I.26] was 3.48; that for `Cn1nc(C(F)F)c(C(=O)N(Cc2ncc(C(F)(F)F)cc2-c2cnc3ccccc3c2)C2CC2)c1F` [I.27] was 3.25; that for `Cn1nc(C(F)F)c(C(=O)N(Cc2ncc(C(F)(F)F)cc2-c2cc3ccccc3nc2O)C2CC2)c1F` [I.28] was 2.76. The compound `Cn1nc(C(F)F)c(C(=O)N(Cc2ncc(C(F)(F)F)cc2-c2ccco2)C2CC2)c1F` [I.30] registered a logP of 3.68. `Cc1csc(-c2cc(C(F)(F)F)cnc2CN(C(=O)c2c(C(F)F)nn(C)c2F)C2CC2)c1` [I.32] returned a logP of 4.27. The compound `Cc1ccc(-c2cc(C(F)(F)F)cnc2CN(C(=O)c2c(C(F)F)nn(C)c2F)C2CC2)o1` [I.33] returned a logP of 3.69.

With `Cc1ccsc1-c1cc(C(F)(F)F)cnc1CN(C(=O)c1c(C(F)F)nn(C)c1F)C1CC1` [I.34], the logP amounted to 4.11. Regarding `Cn1nc(C(F)F)c(C(=S)N(Cc2ncc(C(F)(F)F)cc2-c2cnc3ccccc3c2)C2CC2)c1F` [I.35], the logP is given as 3.90. In turn, `Cn1nc(C(F)F)c(C(=S)N(Cc2ncc(C(F)(F)F)cc2-c2ccoc2)C2CC2)c1F` [I.36] had a logP of 4.03. `Cc1cscc1-c1cc(C(F)(F)F)cnc1CN(C(=O)c1cn(C)nc1C(F)F)C1CC1` [I.38] showed a logP of 3.69. The same measure, in the same setting: the value for `Cn1cc(C(=O)N(Cc2ncc(C(F)(F)F)cc2-c2cccs2)C2CC2)c(C(F)F)n1` [I.39] was 3.46; that for `Cn1cc(C(=O)N(Cc2ncc(C(F)(F)F)cc2-c2ccco2)C2CC2)c(C(F)F)n1` [I.40] was 3.29.

With `Cn1cc(C(=O)N(Cc2ncc(C(F)(F)F)cc2-c2csc3ccccc23)C2CC2)c(C(F)F)n1` [I.42], the logP was 3.92. Compound `Cn1cc(C(=O)N(Cc2ncc(C(F)(F)F)cc2-c2coc3ccccc23)C2CC2)c(C(F)F)n1` [I.43] displayed a logP of 3.73.

As to `Cn1cc(C(=O)N(Cc2ncc(C(F)(F)F)cc2-c2cnc3ccccc3c2)C2CC2)c(C(F)F)n1` [I.44], the logP was 2.82. With `Cn1cc(C(=O)N(Cc2ncc(C(F)(F)F)cc2-c2ccnc3cc(Cl)ccc23)C2CC2)c(C(F)F)n1` [I.45], the log partition coefficient (logP) came to 3.27. As for `Cn1cc(C(=O)N(Cc2ncc(C(F)(F)F)cc2-c2ccoc2)C2CC2)c(C(F)F)n1` [I.46], the logP was 3.15. On to `Cn1cncc1-c1c(CN(C(=O)c2c(C(F)F)nn(C)c2F)C2CC2)sc2ccccc12` [I.48], for which the logP is 1.66. `CC(C)c1nc(-c2c(CN(C(=O)c3c(C(F)F)nn(C)c3F)C3CC3)sc3ccccc23)cs1` [I.49] displayed a logP of 4.61. With `Cn1ccc(-c2c(CN(C(=O)c3c(C(F)F)nn(C)c3F)C3CC3)sc3ccccc23)c1` [I.51], the logP is 3.89.

The compound `Cc1occc1-c1c(CN(C(=O)c2c(C(F)F)nn(C)c2F)C2CC2)sc2ccccc12` [I.52] returned a logP of 4.20. Consider `Cn1nc(C(F)F)c(C(=O)N(Cc2sc3ccccc3c2-c2cncnc2)C2CC2)c1F` [I.54], for which the log partition coefficient (logP) turned out to be 2.76.

The same data set, now with this note: reversed-phase HPLC column (C 18); HPLC C 18, 40° C., 0.1% aqueous formic acid and acetonitrile, gradient 10% to 90% acetonitrile.
`Cn1nc(C(F)F)c(C(=O)N(Cc2ncc(C(F)(F)F)cc2-c2ccsc2)C2CC2)c1F` [I.17, N-cyclopropyl-3-(difluoromethyl)-5-fluoro-1-methyl-N-{[3-(3-thienyl)-5-(trifluoromethyl)pyridin-2-yl]methyl}-1H-pyrazole-4-carboxamide] yielded a chromatographic logP of 3.67. The compound `Cc1ccc(-c2ccsc2CNC2CC2)s1` [IIb.01, N-[(5-methyl-2,3′-bithiophen-2′-yl)methyl]cyclopropanamine] came in with a chromatographic logP of 1.39. With `Cn1nc(C(F)F)c(C(=O)N(Cc2ncc(C(F)(F)F)cc2Cl)C2CC2)c1F` [N-{[3-chloro-5-(trifluoromethyl)pyridin-2-yl]methyl}-N-cyclopropyl-3-(difluoromethyl)-5-fluoro-1-methyl-1H-pyrazole-4-carboxamide], the chromatographic logP turned out to be 3.35.

Another data set deals with Puccinia recondita. As to the kind of experiment: In vivo preventive test on Puccinia recondita (brown rust on wheat). The conditions noted are these: dose 125 ppm; in very similar conditions; prior-art analogues. The protocol: Example C: In Vivo Preventive Test on Puccinia recondita (Brown Rust on Wheat) […]
The young plants of wheat are treated by spraying the active ingredient prepared as described above. […]
After 24 hours, the plants are contaminated by spraying the leaves with an aqueous suspension of Puccinia recondita spores. The contaminated wheat plants are incubated for 24 hours at 20° C. and at 100% relative humidity and then for 10 days at 20° C. and at 70-80% relative humidity.
The test is evaluated 11 days after the inoculation. 0% means an efficacy which corresponds to that of the control plants while an efficacy of 100% means that no disease is observed.
Turning to `Cc1nn(C)c(F)c1C(=O)N(Cc1cn(-c2ccccc2)c2ccccc12)C1CC1` [13 from WO-2009/016222, N-cyclopropyl-5-fluoro-1,3-dimethyl-N-[(1-phenyl-1H-indol-3-yl)methyl]-1H-pyrazole-4-carboxamide], the “Efficacy (Table C2)” value turned out to be 17%.

Consider `Cn1cc(C(=O)N(Cc2cn(-c3ccccc3)c3ccccc23)C2CC2)c(C(F)F)n1` [18 from WO-2009/016222, N-cyclopropyl-3-(difluoromethyl)-1-methyl-N-[(1-phenyl-1H-indol-3-yl)methyl]-1H-pyrazole-4-carboxamide], for which the “Efficacy (Table C2)” value was 0%. Still for that read-out and setting: for `CCc1nn(C)c(F)c1C(=O)N(Cc1cn(-c2ccccc2)c2ccccc12)C1CC1` [29 from WO-2009/016222, N-cyclopropyl-3-ethyl-5-fluoro-1-methyl-N-[(1-phenyl-1H-indol-3-yl)methyl]-1H-pyrazole-4-carboxamide] the value was 22%. For the compound `Cc1nn(C)c(F)c1C(=O)N(Cc1ccc(Oc2ccccc2)nc1)C1CC1` [35 from WO-2008/037789, N-cyclopropyl-5-fluoro-1,3-dimethyl-N-[(6-phenoxypyridin-3-yl)methyl]-1H-pyrazole-4-carboxamide], the “Efficacy (Table C2)” value is given as 0%.

The data set is the same for the next values; noted with them: dose 500 ppm; in very similar conditions; prior-art analogues.
Turning to `Cc1nn(C)c(F)c1C(=O)N(Cc1nc(-c2ccc(Cl)cc2)cs1)C1CC1` [12 from WO2008/015189, N-{[4-(4-chlorophenyl)-1,3-thiazol-2-yl]methyl}-N-cyclopropyl-5-fluoro-1,3-dimethyl-1H-pyrazole-4-carboxamide], the “Efficacy (Table C3)” value is reported as 0%. With `Cc1nn(C)c(F)c1C(=O)N(Cc1cn(-c2ccccc2)c2ccccc12)C1CC1` [13 from WO-2009/016222, N-cyclopropyl-5-fluoro-1,3-dimethyl-N-[(1-phenyl-1H-indol-3-yl)methyl]-1H-pyrazole-4-carboxamide], the “Efficacy (Table C2)” value is on record as 78%. With `Cc1nc(-c2ccc(Cl)cc2)sc1CN(C(=O)c1c(C)nn(C)c1F)C1CC1` [17 from WO2008/015189, N-{[2-(4-chlorophenyl)-4-methyl-1,3-thiazol-5-yl]methyl}-N-cyclopropyl-5-fluoro-1,3-dimethyl-1H-pyrazole-4-carboxamide], the “Efficacy (Table C3)” value is 10%.

For `Cn1cc(C(=O)N(Cc2cn(-c3ccccc3)c3ccccc23)C2CC2)c(C(F)F)n1` [18 from WO-2009/016222, N-cyclopropyl-3-(difluoromethyl)-1-methyl-N-[(1-phenyl-1H-indol-3-yl)methyl]-1H-pyrazole-4-carboxamide], the “Efficacy (Table C2)” value was determined as 0%.

As to `Cn1cc(C(=O)N(Cc2nc(-c3ccc(Cl)cc3)cs2)C2CC2)c(C(F)(F)F)c1` [28 from WO2008/015189, N-{[4-(4-chlorophenyl)-1,3-thiazol-2-yl]methyl}-N-cyclopropyl-1-methyl-4-(trifluoromethyl)-1H-pyrrole-3-carboxamide], the “Efficacy (Table C3)” value is reported as 11%.

Take `CCc1nn(C)c(F)c1C(=O)N(Cc1cn(-c2ccccc2)c2ccccc12)C1CC1` [29 from WO-2009/016222, N-cyclopropyl-3-ethyl-5-fluoro-1-methyl-N-[(1-phenyl-1H-indol-3-yl)methyl]-1H-pyrazole-4-carboxamide]: the “Efficacy (Table C2)” value was determined as 67%. Turning to `Cc1nn(C)c(F)c1C(=O)N(Cc1ccc(Oc2ccccc2)nc1)C1CC1` [35 from WO-2008/037789, N-cyclopropyl-5-fluoro-1,3-dimethyl-N-[(6-phenoxypyridin-3-yl)methyl]-1H-pyrazole-4-carboxamide], the “Efficacy (Table C2)” value came out at 0%.

The same data set, now with this note: in very similar conditions; dose of 500 and 125 ppm; analogues of WO2009/016222 and WO2008/037789.
As to `Cc1nn(C)c(F)c1C(=O)N(Cc1cn(-c2ccccc2)c2ccccc12)C1CC1` [13 from WO-2009/016222, N-cyclopropyl-5-fluoro-1,3-dimethyl-N-[(1-phenyl-1H-indol-3-yl)methyl]-1H-pyrazole-4-carboxamide], the protection entry was “good (at least 70%) to no protection”. `Cn1cc(C(=O)N(Cc2cn(-c3ccccc3)c3ccccc23)C2CC2)c(C(F)F)n1` [18 from WO-2009/016222, N-cyclopropyl-3-(difluoromethyl)-1-methyl-N-[(1-phenyl-1H-indol-3-yl)methyl]-1H-pyrazole-4-carboxamide]: the protection result is “good (at least 70%) to no protection”.

With `CCc1nn(C)c(F)c1C(=O)N(Cc1cn(-c2ccccc2)c2ccccc12)C1CC1` [29 from WO-2009/016222, N-cyclopropyl-3-ethyl-5-fluoro-1-methyl-N-[(1-phenyl-1H-indol-3-yl)methyl]-1H-pyrazole-4-carboxamide], the protection entry is on record as “good (at least 70%) to no protection”. Still for that read-out and setting: for `Cc1nn(C)c(F)c1C(=O)N(Cc1ccc(Oc2ccccc2)nc1)C1CC1` [35 from WO-2008/037789, N-cyclopropyl-5-fluoro-1,3-dimethyl-N-[(6-phenoxypyridin-3-yl)methyl]-1H-pyrazole-4-carboxamide] the value was “good (at least 70%) to no protection”.

The logP is the decadic logarithm of the partition coefficient of the neutral form, usually between octanol and water. The chromatographic logP is a lipophilicity value derived from retention on a column. A higher chromatographic logP goes with a more lipophilic compound.
